Laboratory results reported in patent US5081242A, “6-benzoxazinyl- and 6-benzothiazinyl 2,3,4,5-tetrahydropyridazin-3-ones” (Ortho Pharmaceutical Corporation, priority 1991, dated 1992).

Key:
[1] = target: cyclic nucleotide phosphodiesterase; test: Phosphodiesterase inhibitory activity (cyclic AMP hydrolysis); assay type: biochemical; conditions: read-out: IC50 (50% inhibition of cyclic nucleotide phosphodiesterase activity); cyclic AMP 0.10-1.0 μM, pH 7.4
adult mongrel dogs = test: Cardiotonic activity in anesthetized dogs (myocardial contractile force, i.v.); assay type: in vivo; conditions: Canis lupus familiaris, iv, vs pretreatment control, read-out: CF: Percent increase in cardiac force; for change in vivo at 0.075 mg/kg: i.v. dose 0.075 mpk
Description: The cardiotonic activity of the compounds was determined in accordance with the method of Alousi, A. A., et al., J. Cir. Res. 45, 666 (1979). Basically, adult mongrel dogs were anesthetized with sodium pentobarbital and artificially respired. Arterial pressure was recorded via a femoral artery and the pressure pulse used to trigger a cardiotachometer for heart rate. Left ventricular pressure was measured with a Millar catheter and dP/dt was derived. Cardiac output was determined by measuring ascending aortic blood flow with an electromagnetic flow probe and myocardial contractile force was measured with a Walton Brodie strain gauge sutured to the right ventricle. Lead II EKG was also recorded. A standard does of dopamine was administered to assess myocardial responsiveness. Test compounds were administered by i.v. infusion or bolus administration and the effects on cardiovascular parameters were determined. Dose-related effects of the test compound on BP, HR, dP/dt max., C.F. and C.O. were compared to pretreatment control values and expressed as a percentage change.

| SMILES | IC50 [1] | change in vivo at 0.47 mg/kg (adult mongrel dogs; i.v. dose 0.47 mpk) | change in vivo at 0.075 mg/kg (adult mongrel dogs) |
| --- | --- | --- | --- |
| Cc1cc2c(cc1C1=NNC(=O)CC1)OCC(=O)N2C [Example 43, 6-(3,4-Dihydro-4,6-dimethyl-3-oxo-1,4(2H)-benzoxazin-7-yl)-2,3,4,5-tetrahydropyridazin-3-one] | 35 µM | 104% | – |
| O=C1CCC(c2ccc3c(c2)NC(=O)CS3)=NN1 [Example 53, 6-(3,4-Dihydro-3-oxo-1,4[2H]-benzothiazin-6-yl)-2,3,4,5-tetrahydropyridazin-3-one] | 25 µM | – | 21% |
| CN1C(=O)CSc2ccc(C3=NNC(=O)CC3)cc21 [Example 54, 6-(3,4-Dihydro-4-methyl-3-oxo-1,4[2H]-benzothiazin-6-yl)-2,3,4,5-tetrahydropyridazin-3-one] | 22 µM | – | 11% |
